Paper PMC4685510, “A Cell Biologist’s Field Guide to Aurora Kinase Inhibitors” (Frontiers in Oncology, 2015)

Columns and labels:
U2OS cells = assay: Cytokinesis assay (live imaging, YFP-α-tubulin; H2B-RFP), U2OS; type: cell-based; settings: Homo sapiens, cytokinesis failure, read-out: Cytokinesis IC50
HeLa cells = assay: Cytokinesis assay (live imaging, YFP-α-tubulin; H2B-RFP), HeLa; type: cell-based, human; settings: Homo sapiens; HeLa; cytokinesis failure; read-out: Cytokinesis IC50
[1] = target: 363 human kinases (including Aurora A/B/C) (Homo sapiens, UniProt Q16584); assay: biochemical; type: biochemical; settings: MLK3/MAP3K11, 500 nM
Text: However, the Aurora A/B selectivity ratios derived from our in vitro and in vivo data can be compared to prioritize inhibitors.

Aurora B/INCENP^783–918 = target: T1, Aurora B/INCENP^783–918 (Homo sapiens, UniProt Q96GD4); assay: Aurora B/INCENP^783–918 kinase assay (ADP-Glo); type: biochemical
T1 construct: purchased SignalChem

[2] = target: T2, full-length human Aurora A (Homo sapiens, UniProt O14965); assay: Aurora A kinase assay (ADP-Glo, Kemptide substrate)
T2 sequence (O14965 1-403): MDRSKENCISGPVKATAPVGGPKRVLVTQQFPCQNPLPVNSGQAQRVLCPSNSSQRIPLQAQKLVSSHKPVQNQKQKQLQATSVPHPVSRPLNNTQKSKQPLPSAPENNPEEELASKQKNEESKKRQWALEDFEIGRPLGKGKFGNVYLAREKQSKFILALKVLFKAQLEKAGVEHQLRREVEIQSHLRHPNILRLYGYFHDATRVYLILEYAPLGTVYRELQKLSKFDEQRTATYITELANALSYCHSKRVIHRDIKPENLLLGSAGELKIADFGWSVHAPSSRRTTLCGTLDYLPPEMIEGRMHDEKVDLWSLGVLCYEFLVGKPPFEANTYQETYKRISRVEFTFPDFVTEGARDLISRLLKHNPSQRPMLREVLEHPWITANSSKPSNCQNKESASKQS

[3] = fold difference in potency calculated by dividing Ki values

T1 sequence (Q96GD4 whole entry): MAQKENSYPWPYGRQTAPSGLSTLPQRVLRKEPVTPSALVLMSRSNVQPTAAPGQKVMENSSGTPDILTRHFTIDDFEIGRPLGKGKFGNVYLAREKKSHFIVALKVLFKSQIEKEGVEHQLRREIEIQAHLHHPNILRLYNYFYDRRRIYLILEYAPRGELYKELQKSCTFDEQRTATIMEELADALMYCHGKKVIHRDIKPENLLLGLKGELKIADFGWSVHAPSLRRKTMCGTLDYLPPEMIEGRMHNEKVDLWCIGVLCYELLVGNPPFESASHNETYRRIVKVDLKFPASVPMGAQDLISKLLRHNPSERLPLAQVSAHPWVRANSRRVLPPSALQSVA
T1 sequence (Q9NQS7 783-918 partner limits assumed): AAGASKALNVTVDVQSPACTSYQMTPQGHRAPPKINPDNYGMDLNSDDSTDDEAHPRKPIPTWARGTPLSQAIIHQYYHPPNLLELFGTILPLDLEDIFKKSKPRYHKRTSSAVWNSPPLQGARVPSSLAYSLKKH
363 human kinases (including Aurora A/B/C), sequence (Q16584 whole entry): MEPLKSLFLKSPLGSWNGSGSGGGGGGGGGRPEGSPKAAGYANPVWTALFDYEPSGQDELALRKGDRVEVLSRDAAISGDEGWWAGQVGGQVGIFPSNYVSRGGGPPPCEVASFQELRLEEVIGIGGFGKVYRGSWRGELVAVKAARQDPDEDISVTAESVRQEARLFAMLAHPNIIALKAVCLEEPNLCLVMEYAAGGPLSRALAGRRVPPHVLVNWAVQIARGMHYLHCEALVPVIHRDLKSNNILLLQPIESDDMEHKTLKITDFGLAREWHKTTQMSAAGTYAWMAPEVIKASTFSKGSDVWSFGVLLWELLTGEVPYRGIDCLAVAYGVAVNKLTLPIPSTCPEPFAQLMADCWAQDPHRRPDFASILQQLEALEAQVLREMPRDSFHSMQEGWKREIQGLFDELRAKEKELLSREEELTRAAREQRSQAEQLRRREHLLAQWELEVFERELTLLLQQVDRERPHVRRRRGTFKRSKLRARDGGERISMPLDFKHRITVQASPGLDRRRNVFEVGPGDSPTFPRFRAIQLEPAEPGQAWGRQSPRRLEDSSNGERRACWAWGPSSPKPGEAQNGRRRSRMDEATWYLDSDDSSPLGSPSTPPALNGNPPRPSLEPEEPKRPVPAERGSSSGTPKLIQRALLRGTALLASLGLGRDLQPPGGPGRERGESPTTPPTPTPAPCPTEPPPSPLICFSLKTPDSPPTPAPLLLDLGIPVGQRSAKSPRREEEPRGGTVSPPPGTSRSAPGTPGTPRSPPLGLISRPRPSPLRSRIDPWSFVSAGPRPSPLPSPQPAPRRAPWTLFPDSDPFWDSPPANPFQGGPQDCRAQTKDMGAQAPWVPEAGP

Compound: CCn1cc(-c2ccnc3[nH]c(-c4cccc(CN(C)C)c4)cc23)c(-c2ccc(NC(=O)N(C)C)cc2)n1 [GSK1070916]
- IC50 (U2OS cells): 6 nM
- IC50 (HeLa cells): 6 nM

Compound: O=C(c1cccc(Cl)c1F)N1CCN(Cc2cccc(Nc3nccs3)n2)CC1 [MK-8745]
- % Enzyme Activity (relative to DMSO controls) [1]: 92.79%
- remaining activity at 0.5 µM ([1]; read-out: % Enzyme Activity (relative to DMSO controls)): 94.8%
- Ki (Aurora B/INCENP^783–918; Aurora B INCENP^783-918 Ki (example dataset, Figure 2D), calculated from the example IC50): 58.8 nM
- Ki (Aurora B/INCENP^783–918; Aurora B-INCENP^783–918 Ki Mean ± SD, [ATP] = Km(ATP) (10 μM)): 66.8 ± 19.6 nM
- IC50 (Aurora B/INCENP^783–918; [ATP] = Km(ATP), example dataset): 118 nM
- IC50 [2]: 0.23 nM
- Ki ([2]; Aurora A Ki Mean ± SD, [ATP] = Km(ATP) (35 μM), Ki calculated from IC50 with tight-binding equation): 0.06 ± 0.004 nM
- Selectivity ratio Aur A versus Aur A-TPX2^1–43 [2, 3]: 6.3 fold
- Selectivity ratio Aur A versus Aur B-INCENP^783–918 [2, 3]: 1030 fold
